± gives the expanded uncertainty stated by the source. Each block holds one molecule with its values, some of them ahead of it.
Assay: wn = mass fraction of the nth substance listed
Conditions: 323.15 K, 101.3 kPa, Liquid, Vibrating tube method

Compound: O=[PH2][O-].[Na+] [sodium phosphinate] + O
mass density (w1 = 0.5786): 1415.2 ± 24 kg/m3

mass density (w1 = 0.566): 1575.9 ± 24 kg/m3
Compound: [Ca+2].[Cl-].[Cl-] [calcium chloride] + O

Compound: O=[PH2][O-].O=[PH2][O-].[Ca+2] [calcium hypophosphite] + O
mass density (w1 = 0.1326): 1073.2 ± 24 kg/m3
